Source: doi:10.1101/2021.09.28.462154v2 (biorxiv, 2022)

Assays:
[1] = biological target: T1, OR1A1 (Homo sapiens, UniProt Q9P1Q5); assay: cAMP accumulation; type: biochemical
T1 sequence (Q9P1Q5 1-309): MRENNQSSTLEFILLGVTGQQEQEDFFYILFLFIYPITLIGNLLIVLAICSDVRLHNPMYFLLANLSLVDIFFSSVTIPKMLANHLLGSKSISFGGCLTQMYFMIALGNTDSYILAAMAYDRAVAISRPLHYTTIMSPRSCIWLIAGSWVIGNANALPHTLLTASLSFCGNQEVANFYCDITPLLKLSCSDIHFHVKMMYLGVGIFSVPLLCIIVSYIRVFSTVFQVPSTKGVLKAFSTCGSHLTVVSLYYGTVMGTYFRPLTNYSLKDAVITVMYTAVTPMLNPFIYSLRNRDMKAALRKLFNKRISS

[2] = biological target: T2, OR5AN1 (Homo sapiens, UniProt Q8NGI8); assay: cAMP accumulation; type: biochemical
T2 sequence (Q8NGI8 1-311): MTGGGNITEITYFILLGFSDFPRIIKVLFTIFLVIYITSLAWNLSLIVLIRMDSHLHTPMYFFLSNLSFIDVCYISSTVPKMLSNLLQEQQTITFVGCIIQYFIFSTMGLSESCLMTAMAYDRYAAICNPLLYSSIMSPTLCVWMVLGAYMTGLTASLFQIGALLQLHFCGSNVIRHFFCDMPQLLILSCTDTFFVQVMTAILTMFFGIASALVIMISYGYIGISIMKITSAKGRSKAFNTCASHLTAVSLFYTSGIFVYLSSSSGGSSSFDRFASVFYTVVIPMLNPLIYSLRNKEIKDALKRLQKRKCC

EC50 [1] [nM] | EC50 [2] [nM] | Compound
388 | – | CCCCCC(=O)C(C)C(C)=O (centres unmarked) [3-methyl-2,4-nonanedione]
– | 290 | C[C@@H]1CCCCCCCCCCCCC(=O)C1 [muscone]
